Results taken from ChEMBL document CHEMBL1649183, “Substrate-induced inactivation of the Escherichia coli AmiD N-acetylmuramoyl-L-alanine amidase highlights a new strategy to inhibit this class of enzyme” (Antimicrob Agents Chemother, 2009).
The source made the active and inactive calls. The rule behind the calls is not given here.

Tests used:
[1] = test system: Escherichia coli; assay: Inactivation of histidine6-tagged Escherichia coli LMG194 AmiD at 27 uM
[2] = test system: Escherichia coli; assay: Inactivation of histidine6-tagged Escherichia coli LMG194 AmiD at 14 uM

- inhibition [1]: Active
- inhibition [2]: Active
SMILES: CC(=O)N[C@H]1[C@@H]2OC[C@@H](O2)[C@@H](O[C@@H]2O[C@H](CO)[C@@H](O)C(O)[C@H]2NC(C)=O)[C@@H]1O[C@@H](C)C(=O)N[C@@H](C)C(=O)N[C@H](CCC(=O)N[C@H](CCC[C@H](N)C(=O)O)C(=O)N[C@H](C)C(=O)O)C(=O)O (single isomer, unassigned)
